Reference: patent publication US12233041B2, “Disulfonate stilbenes for use in the treatment of proliferative diseases” (UNIVERSITÉ DE NANTES, priority 2018, dated 2025)
Read-outs that look alike come from different tables or passages of the source.

Legend:
Rad51 = target: T1, Rad51 (Homo sapiens, UniProt Q06609); assay: DNA invasion by D-loop assay (strand exchange); format: biochemical; settings: 0.5 μM Rad51, 1 μM 100-ssDNA, 37° C.; read-out: IC50 (RAD51 protein inhibition, D-loop formation)
T1 sequence (Q06609 1-339): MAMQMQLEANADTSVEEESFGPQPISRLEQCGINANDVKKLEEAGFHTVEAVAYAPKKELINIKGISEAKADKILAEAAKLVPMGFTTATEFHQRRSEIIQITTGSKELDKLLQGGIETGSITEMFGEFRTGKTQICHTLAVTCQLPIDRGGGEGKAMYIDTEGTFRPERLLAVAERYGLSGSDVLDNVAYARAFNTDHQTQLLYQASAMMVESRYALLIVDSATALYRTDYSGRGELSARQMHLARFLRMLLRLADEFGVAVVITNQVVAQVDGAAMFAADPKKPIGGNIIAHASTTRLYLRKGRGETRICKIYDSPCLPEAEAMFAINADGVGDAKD
Procedure: Labeled 100-ssDNA** (1 μM) was incubated with 0.5 μM Rad51 in presence or absence of the indicated amounts of the corresponding molecule in 10 μL of standard reaction buffer containing 20 mM Tris-HCl (pH 8), 1 mM ATP, 1 mM DTT, 1 mM CaCl2) at 37° C. for 20 min. The reaction was initiated by adding supercoiled pPB4.3 DNA (200 μM in bp). After incubation of 30 min at 37° C., the reactions were stopped and deproteinized by a stop solution (10 mM Tris-HCl pH 8, 10 mM MgCl2, 1% SDS, and 1 mg/mL proteinase K. The reaction mixtures were further incubated for 15 min at 37° C. After adding 5-fold loading dye (0.05% bromophenol blue, 8% glycerol, 1 mM EDTA), the reaction products were separated by electrophoresis on 1% agarose gel. The electrophoresis was carried out in 0.5×TAE buffer (20 mM Tris, 10 mM acetic acid and 1 mM EDTA) at 100 V for 2 h. The labeled products (100-ssDNA** and D-loop) were visualized and quantified by the detection of the IRD-700 dye with the 700 nm infrared fluorescent detection channel of an Odyssey Infrared Imager (LI-COR) (Normand, A. et al., Biochemical Pharmacology, October 2014, Vol. 91, No. 3, pp. 293-300).
The “D-loop” in vitro test allows the quantification of the formation of the strand exchange structure (D-loop) and thus the determination of the inhibitory power of a molecule during the strand exchange step of the recombinase mechanism. IC50 measuring the RAD51 protein inhibition in presence of compounds A-1 to A-5, […] and DIDS are then calculated.

[1] = tested on: recombinant fibroblast line RG37; assay: Intracellular homologous recombination (HR), GFP reconstitution after I-SceI cleavage, flow cytometry; format: cell-based; settings: RG37 cells, 72 h after pCMV-HA-I-SceI transfection; FIG. 3
Procedure: After transfection with the pCMV-HA-I-SceI plasmid and incubation for 72 h, the cells were collected in PBS and 50 mM EDTA, pelleted and fixed with 2% paraformaledhyde for 20 min. The percentage of GFP-expressing cells was scored by FACS analysis using Cytoflex (Beckman Coulter). At least 3 independent experiments were performed, and HA-I-SceI expression was verified each time by Western blot with rabbit anti-HA antibody (Abcam).
The recombinant fibroblast line RG37 is used to confirm in vitro results (Examples 2-5) in the cellular context. This cellar line comprises two non-functional GFP cassettes, one of which has a unique cleavage site inducible by transfection of a restriction enzyme. After cleavage, which is equivalent to a double-strand break (DSB) of the DNA, the homologous recombination (HR) leads to the reconstitution of a complete GFP cassette thus making the cell fluorescent. The rate of intracellular HR is then determined by measurement in flow cytometry so as to measure the level of HR in cells after treatment with compounds C-3, B-2 and X-2.

DU-145 cell line = assay: Clonogenicity test, sensitizing effect with an antineoplastic drug; format: cell-based; settings: Homo sapiens, DU-145, B-2 20 μM
Procedure: Clonogenicity tests are carried out against several model cell lines derived from cancer including prostate cancer (DU-145). Cells are exposed to an anti-cancer agent targeting DNA (cisplatin or camptothecin). Damaged cells are counted and seeded in the presence or in the absence of B-2 in triplicate culture plates. After about two weeks of incubation at 37° C. the number of clones formed is counted. Each cell capable of repairing its lesions will then form a clone. After counting, the percentage of survival will be calculated relative to the control condition for which it is considered that there is 100% survival.
The main interest of RAD51 protein inhibitors is the sensitization of chemo-resistant or radio-resistant cancerous cell lines. Clonogenicity evaluation was carried out on the DU-145 cell line treated with cisplatin treatment in the presence or in the absence of disulfonate stilbene B-2 (RAD51 protein inhibitor).
DU-145 cell line was treated with camptothecin in the presence or in the absence of disulfonate stilbene B-2 (RAD51 protein inhibitor) and the clonogenic cell survival was determined.

[2] = tested on: RAD51 foci in DU-145 cells; assay: Rad51 foci quantification by immunofluorescence; format: cell-based; settings: DU-145, B-2 20 μM + cisplatin 30 μM; FIG. 8
Procedure: DU-145 cells were grown on coverslips (Life Technologies) at a density of 5×10^3 cells per well in medium (RPMI) supplemented with 10% fetal bovine serum (Gibco-Invitrogen). Cells were treated with Cisplatin at 30 μM for 1 hour in presence or in absence of RAD51 inhibitor B-2 at 20 μM, and then the medium was replaced with molecule-free medium. After 18 h, cells were washed once in PBS for 5 min and fixed with ethanol absolute for 25 min.
The fixed cells were incubated for 1 h in the PBS buffer containing 1:1000 diluted anti-RAD51 antibody at room temperature. After three 5-min washes in PBS, slides were incubated with PBS solution containing the secondary antibody conjugated with AlexaFluor 555 ([…]) for 45 min in dark room. […] The images were recorded with NIS Element software (Version 3.6, Nikon, Tokyo, Japan). The quantification of RAD51 foci was processed with a program derived from Fiji-ImageJ software (NIH, Bethesda, Maryland, USA). […]
The treatment with Cisplatin alone induces a high level of RAD51 foci, whereas this level is decreased when the treatment is associated with B-2 20 μM. After the quantification of the number of RAD51 foci per cell, the number of cells containing more than 20 RAD51 foci was determined.

IC50 (Rad51): 5 µM
SMILES: N#Cc1ccc(/C=C/c2ccc(C#N)cc2S(=O)(=O)[O-])c(S(=O)(=O)[O-])c1.[Na+].[Na+] [B-2, Sodium (E)-6,6′-(ethene-1,2-diyl)bis(3-cyanobenzenesulfonate)]
intracellular HR inhibition [1]: significant inhibitory effect
percent decrease of IC50 at 20 µM (DU-145 cell line; read-out: decrease of growth inhibition IC50 for camptothecin in presence of B-2): ~90%
percent decrease of IC50 at 20 µM (DU-145 cell line; read-out: decrease of growth inhibition IC50 for cisplatin in presence of B-2): ~40%
decrease of level of RAD51 foci mediated by cisplatin (cells containing more than 20 RAD51 foci) [2]: about 20%
